Laboratory results: patent publication US20200231638A1, “STABILIZED ANTI-MICROBIAL PEPTIDES” (priority 2015, published 2020)
Bridge positions count the residues as written; N and C are the ends. Square brackets hold non-standard residues; d marks the D form. Peptide text beside a SMILES is read from it. S5 = C=CCCC[C@](C)(N)C(=O)O; Nle = CCCC[C@H](N)C(=O)O

How the values were obtained:
S. aureus = assay type: cell-based, Staphylococcus aureus
Description: (§1) Antimicrobial Activity Assay:
(§2) The following microbroth dilution protocol was adapted to determine the minimum inhibitory concentration (MIC) of each peptide. First, Mueller-Hinton broth (MHB) was passed through an anion exchange column to remove polyanionic species and generate refined MHB. […] Briefly, bacterial cells was grown overnight in refined MHB at 37° C. and then diluted and allowed to grow again for several hours. Serial dilutions of peptide stocks in water (10 μl) were prepared using clear round-bottom polypropylene 96-well plates. Then 90 μl of bacteria in refined MHB was added to give a final inoculum of 5×10^5 CFU/ml. The plates were then covered with porous tape to reduce evaporation, and incubated for 20-24 hours at 37° C. The MIC is the minimum peptide concentration at which no visible growth was observed.

E. coli = assay type: cell-based, Escherichia coli
Description: as §1, §2

P. aeruginosa = assay type: cell-based, Pseudomonas aeruginosa
Description: as §1, §2

human red blood cells = assay type: cell-based; conditions: for % Hemolysis at 25 μg/ml: red cells of human, 1 h
Description: FIG. 5 is a series of line graphs depicting the hemolytic activity of magainin II and stapled analogues. Peptides were incubated with 1% (v/v) human red blood cells in phosphate-buffered solution for 1 hour at 37° C. and then the supernatant was isolated and the amount of hemoglobin released was measured at 540 nm. % hemolysis was calculated relative to an untreated control.
Hemolytic Activity Assay:
For the determination of hemolytic activity, human blood samples were centrifuged to isolate red blood cells (RBCs), which are then washed and suspended in phosphate-buffered saline to yield a 1% (v/v) suspension. The suspension was then added to serial dilutions of peptide stocks in water in clear round-bottom polypropylene 96-well plates and the plates were incubated for 1 hour at 37° C. After incubation, the plates were centrifuged and the supernatant was isolated to determine the amount of hemoglobin released using a spectrophotometer (570 nm), according to the equation: % Hemolysis=(Treated Absorbance−Untreated Control Absorbance)/(1% Triton-X100 Treated Absorbance−Untreated Control Absorbance). The minimum hemolytic concentration (MHC) is the peptide concentration at which there is less than 1% hemoglobin release.

B. cereus = assay type: cell-based, Bacillus cereus
Description: as §1, §2

Compound	MIC S. aureus (S. aureus) [µg/mL]	MIC E. coli (E. coli) [µg/mL]	MIC P. aeruginosa (P. aeruginosa) [µg/mL]	% Hemolysis at 25 μg/ml (human red blood cells) [%]	MIC B. cereus (B. cereus) [µg/mL]	hemolytic activity at concentrations 8-fold higher than its MIC (human red blood cells)
CCCC[C@H](NC(=O)[C@@H](NC(=O)[C@H](CCC(=O)O)NC(=O)CNC(=O)[C@@H](NC(=O)[C@H](Cc1ccccc1)NC(=O)[C@H](C)NC(=O)[C@H](CCCCN)NC(=O)CNC(=O)[C@H](Cc1ccccc1)NC(=O)[C@H](CCCCN)NC(=O)[C@H](CCCCN)NC(=O)[C@H](C)NC(=O)[C@H](CO)NC(=O)[C@H](Cc1c[nH]cn1)NC(=O)[C@H](CC(C)C)NC(=O)[C@]1(C)CCCC=CCCC[C@](C)(N)C(=O)N[C@@H]([C@@H](C)CC)C(=O)NCC(=O)N[C@@H](CCCCN)C(=O)N1)C(C)C)[C@@H](C)CC)C(=O)N[C@@H](CC(N)=O)C(=O)N[C@@H](CO)C(N)=O [Mag(i + 4)0, XIGKXLHSAKKFGKAFVGEIBNS] (H-[S5]IGK[S5]LHSAKKFGKAFVGEI[Nle]NS-NH2; staple 1-5)	>50	3.1	50	4.8	12.5	
CCCC[C@H](NC(=O)[C@]1(C)CCCC=CCCC[C@](C)(NC(=O)[C@H](C)NC(=O)[C@H](CCCCN)NC(=O)CNC(=O)[C@H](Cc2ccccc2)NC(=O)[C@H](CCCCN)NC(=O)[C@H](CCCCN)NC(=O)[C@H](CCCCN)NC(=O)[C@H](CO)NC(=O)[C@H](Cc2c[nH]cn2)NC(=O)[C@]2(C)CCCC=CCCC[C@](C)(NC(=O)CN)C(=O)NCC(=O)N[C@@H](CCCCN)C(=O)N[C@@H](Cc3ccccc3)C(=O)N2)C(=O)N[C@@H](C(C)C)C(=O)NCC(=O)N[C@@H](CCC(=O)O)C(=O)N1)C(=O)N[C@@H](CC(N)=O)C(=O)N[C@@H](CO)C(N)=O [Mag(i + 4)1, 15(A9K), GXGKFXHSKKKFGKAXVGEXBNS] (H-G[S5]GKF[S5]HSKKKFGKA[S5]VGE[S5][Nle]NS-NH2; staple 2-6, 16-20)	50	1.6	3.1	2.4	25	little hemolytic activity
CCCC[C@H](NC(=O)[C@]1(C)CCCC=CCCC[C@](C)(NC(=O)[C@H](C)NC(=O)[C@H](CCCCN)NC(=O)CNC(=O)[C@H](Cc2ccccc2)NC(=O)[C@H](CCCCN)NC(=O)[C@H](CCCCN)NC(=O)[C@H](CCCCN)NC(=O)[C@H](Cc2c[nH]cn2)NC(=O)[C@H](Cc2c[nH]cn2)NC(=O)[C@]2(C)CCCC=CCCC[C@](C)(NC(=O)CN)C(=O)NCC(=O)N[C@@H](CCCCN)C(=O)N[C@@H](Cc3ccccc3)C(=O)N2)C(=O)N[C@@H](C(C)C)C(=O)N[C@@H](Cc2c[nH]cn2)C(=O)N[C@@H](CCC(=O)O)C(=O)N1)C(=O)N[C@@H](CCC(=O)O)C(=O)N[C@@H](CO)C(N)=O [Mag(i + 4)1, 15(S8H, A9K, G18H, N21E)] (H-G[S5]GKF[S5]HHKKKFGKA[S5]VHE[S5][Nle]ES-NH2; staple 2-6, 16-20; N-terminus assumed)	>50	3.1	12.5	4.2	50	
CCCC[C@H](NC(=O)[C@@H](NC(=O)[C@H](CCC(=O)O)NC(=O)CNC(=O)[C@@H](NC(=O)[C@H](Cc1ccccc1)NC(=O)[C@H](C)NC(=O)[C@H](CCCCN)NC(=O)CNC(=O)[C@H](Cc1ccccc1)NC(=O)[C@H](CCCCN)NC(=O)[C@H](CCCCN)NC(=O)[C@H](C)NC(=O)[C@H](CO)NC(=O)[C@H](Cc1c[nH]cn1)NC(=O)[C@]1(C)CCCC=CCCC[C@](C)(NC(=O)CN)C(=O)NCC(=O)N[C@@H](CCCCN)C(=O)N[C@@H](Cc2ccccc2)C(=O)N1)C(C)C)[C@@H](C)CC)C(=O)N[C@@H](CC(N)=O)C(=O)N[C@@H](CO)C(N)=O [Mag(i + 4)1, GXGKFXHSAKKFGKAFVGEIBNS] (H-G[S5]GKF[S5]HSAKKFGKAFVGEI[Nle]NS-NH2; staple 2-6)	>50	3.1	12.5		25	
CCCC[C@H](NC(=O)[C@]1(C)CCCC=CCCC[C@](C)(NC(=O)[C@H](C)NC(=O)[C@H](CCCCN)NC(=O)CNC(=O)[C@H](Cc2ccccc2)NC(=O)[C@H](CCCCN)NC(=O)[C@H](CCCCN)NC(=O)[C@H](CCCCN)NC(=O)[C@H](CO)NC(=O)[C@]2(C)CCCC=CCCC[C@](C)(NC(=O)[C@@H](NC(=O)CN)[C@@H](C)CC)C(=O)N[C@@H](CCCCN)C(=O)N[C@@H](Cc3ccccc3)C(=O)N[C@@H](CC(C)C)C(=O)N2)C(=O)N[C@@H](C(C)C)C(=O)NCC(=O)N[C@@H](CCC(=O)O)C(=O)N1)C(=O)N[C@@H](CC(N)=O)C(=O)N[C@@H](CO)C(N)=O [Mag(i + 4)2, 15(A9K), GIXKFLXSKKKFGKAXVGEXBNS] (H-GI[S5]KFL[S5]SKKKFGKA[S5]VGE[S5][Nle]NS-NH2; staple 3-7, 16-20)	3.1	1.6	3.1		3.1	
CCCC[C@H](NC(=O)[C@]1(C)CCCC=CCCC[C@](C)(NC(=O)[C@H](C)NC(=O)[C@H](CCCCN)NC(=O)CNC(=O)[C@H](Cc2ccccc2)NC(=O)[C@H](CCCCN)NC(=O)[C@H](CCCCN)NC(=O)[C@H](Cc2c[nH]cn2)NC(=O)[C@H](CO)NC(=O)[C@]2(C)CCCC=CCCC[C@](C)(NC(=O)[C@H](CCCCN)NC(=O)CN)C(=O)N[C@@H](CCCCN)C(=O)N[C@@H](Cc3ccccc3)C(=O)N[C@@H](CC(C)C)C(=O)N2)C(=O)N[C@@H](C(C)C)C(=O)NCC(=O)N[C@@H](CCC(=O)O)C(=O)N1)C(=O)N[C@@H](CCC(=O)O)C(=O)N[C@@H](CO)C(N)=O [Mag(i + 4)2, 15(I2K, A9H, N21E)] (H-GK[S5]KFL[S5]SHKKFGKA[S5]VGE[S5][Nle]ES-NH2; staple 3-7, 16-20)	50	3.1	12.5	1.8	25	
CCCC[C@H](NC(=O)[C@]1(C)CCCC=CCCC[C@](C)(NC(=O)[C@H](C)NC(=O)[C@H](CCCCN)NC(=O)CNC(=O)[C@H](Cc2ccccc2)NC(=O)[C@H](CCCCN)NC(=O)[C@H](CCCCN)NC(=O)[C@H](CCCCN)NC(=O)[C@H](CO)NC(=O)[C@]2(C)CCCC=CCCC[C@](C)(NC(=O)[C@H](CCCCN)NC(=O)CN)C(=O)N[C@@H](CCCCN)C(=O)N[C@@H](Cc3ccccc3)C(=O)N[C@@H](CC(C)C)C(=O)N2)C(=O)N[C@@H](C(C)C)C(=O)N[C@@H](Cc2c[nH]cn2)C(=O)N[C@@H](CCC(=O)O)C(=O)N1)C(=O)N[C@@H](CC(N)=O)C(=O)N[C@@H](CO)C(N)=O [Mag(i + 4)2, 15(I2K, A9K, G18H)] (H-GK[S5]KFL[S5]SKKKFGKA[S5]VHE[S5][Nle]NS-NH2; staple 3-7, 16-20)	25	3.1	3.1	2.2	12.5	
CCCC[C@H](NC(=O)[C@@H](NC(=O)[C@H](CCC(=O)O)NC(=O)CNC(=O)[C@@H](NC(=O)[C@H](Cc1ccccc1)NC(=O)[C@H](C)NC(=O)[C@H](CCCCN)NC(=O)CNC(=O)[C@H](Cc1ccccc1)NC(=O)[C@]1(C)CCCC=CCCC[C@](C)(NC(=O)[C@H](CC(C)C)NC(=O)[C@H](Cc2ccccc2)NC(=O)[C@H](CCCCN)NC(=O)CNC(=O)[C@@H](NC(=O)CN)[C@@H](C)CC)C(=O)N[C@@H](CO)C(=O)N[C@@H](C)C(=O)N[C@@H](CCCCN)C(=O)N1)C(C)C)[C@@H](C)CC)C(=O)N[C@@H](CC(N)=O)C(=O)N[C@@H](CO)C(N)=O [Mag(i + 4)6, GIGKFLXSAKXFGKAFVGEIBNS] (H-GIGKFL[S5]SAK[S5]FGKAFVGEI[Nle]NS-NH2; staple 7-11)	25	6.2	25		12.5	
